# Molecular target: T1, JuvD-RhFRED (Micromonospora chalcea, UniProt A0A1Z1MZ59)
# T1 sequence (A0A1Z1MZ59 1-402): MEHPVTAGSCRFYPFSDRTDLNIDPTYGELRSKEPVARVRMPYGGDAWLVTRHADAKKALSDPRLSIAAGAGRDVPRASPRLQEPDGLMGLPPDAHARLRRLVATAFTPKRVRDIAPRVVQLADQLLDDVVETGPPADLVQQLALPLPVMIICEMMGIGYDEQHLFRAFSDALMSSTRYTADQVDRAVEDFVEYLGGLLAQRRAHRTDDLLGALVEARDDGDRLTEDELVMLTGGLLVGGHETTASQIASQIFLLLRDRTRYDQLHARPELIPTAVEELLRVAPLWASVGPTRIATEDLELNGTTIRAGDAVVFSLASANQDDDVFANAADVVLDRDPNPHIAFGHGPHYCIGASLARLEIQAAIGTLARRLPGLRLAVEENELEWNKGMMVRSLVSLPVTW
# Test: in vitro P450 oxidation
# Format: biochemical
# Conditions: C12-C13 epoxidation; enzyme preparation not given
smiles,measurement,value
"CC[C@H]1OC(=O)C[C@@H](O)[C@H](C)[C@@H](O[C@@H]2O[C@H](C)C[C@H](N(C)C)[C@H]2O)[C@@H](CC=O)C[C@@H](C)C(=O)/C=C/C(C)=C/[C@@H]1C [compound 5, M-4365 G2]",in vitro P450 oxidation,this enzyme effectively converted each substrate to a single product

# Reference: PMC5532807 (Journal of the American Chemical Society, 2017)
